Test results reported in article PMC2832307 (Journal of medicinal chemistry, 2009).
Entries after “also recorded” stand apart in the source; their conditions may differ. Read-outs that look alike come from different tables or passages of the source.

Columns and labels:
[1] = system: PCDH15-R3X nonsense mutation; test: Ex vivo dual luciferase readthrough assay in COS-7 cells; assay type: cell-based, monkey
[2] = system: hair cells of mouse organ of Corti explants; test: Ototoxicity: hair cell loss in cochlear explants; assay type: cell-based; conditions: 0.2 mM, basal part
[3] = Acute intravenous toxicity; set-up: species or system mice; conditions: male, BALB/C, mouse, in vivo
[4] = system: nonsense mutation constructs (p2luc, R3381X, R3X, R245X, G542X, W1282X, Q70X, W402X); test: In vitro dual luciferase readthrough assay; assay type: biochemical; conditions: for reduction in overall translation: highest concentration, Renilla luciferase activity ratio, all eight constructs
mice = conditions: cited from earlier work
[5] = system: human CFTR-G542X nonsense mutation; conditions: clinical doses, transgenic CF mouse; cited from earlier work
premature stop codons = conditions: cited from earlier work
[6] = system: human cytoplasmic A site sequence; conditions: cited from earlier work

For CNC(C)C1CCC(N)C(OC2C(N)CC(N)C(OC3OCC(C)(O)C(NC)C3O)C2O)O1 (stereo not shown) [Gentamicin, gentamicin], the maximal suppression level ([1]; COS-7 cells) was 1.86%, the “hair cell loss in cochlear explants” value [2] was “hair cell loss was almost complete; also recorded: cell loss is almost complete” and the LD50 at 4 days [3] was 60 mg/kg. For the same molecule, the “reduction in overall translation” value [4] was “approximately 50%”.

In the case of NCCC(O)C(=O)NC1CC(N)C(OC2OC(CN)C(O)C(O)C2N)C(O)C1O (stereo not shown) [N-1-AHB-neamine], the LD50 (mice; acute lethal toxicity) is given as 260 mg/kg.

With NC[C@@H]1O[C@H](O[C@H]2[C@@H](O)[C@H](O[C@@H]3[C@@H](O)[C@H](N)C[C@H](N)[C@H]3O[C@H]3O[C@H](CO)[C@@H](O)[C@H](O)[C@H]3N)O[C@@H]2CO)[C@H](N)[C@@H](O)[C@@H]1O [Paromomycin, paromomycin] the “reduction in overall translation” value [4] was “approximately 40%”.

For NCC[C@H](O)C(=O)N[C@@H]1C[C@H](N)[C@@H](O[C@H]2O[C@H](CN)[C@@H](O)[C@H](O)[C@H]2O)[C@H](O)[C@H]1O[C@H]1O[C@H](CO)[C@@H](O)[C@H](N)[C@H]1O [amikacin], the “suppression of CFTR-G542X nonsense mutation” value [5] is given as “highly effective suppression”, the “readthrough potency, fold lower than gentamicin” value (premature stop codons) is given as “over 10 fold” and the LD50 (mice; acute intravenous toxicity in mice) is given as 300 mg/kg.

For NCC[C@H](O)C(=O)N[C@@H]1C[C@H](N)[C@@H](O[C@H]2O[C@H](CN)CC[C@H]2N)[C@H](O)[C@H]1O[C@H]1O[C@H](CO)[C@@H](O)[C@H](N)[C@H]1O [arbekacin], the LD50 (mice; acute lethal toxicity) is listed as 118 mg/kg.

For NC[C@H]1O[C@@H](O[C@@H]2[C@@H](O)[C@H](N)C[C@H](N)[C@H]2O[C@H]2O[C@H](CO)[C@@H](O)[C@H](O)[C@H]2N)[C@H](O)[C@@H]1O [compound 1], the “fold weaker affinity than paromomycin” value [6] is given as “about 100 fold”.

For NCC[C@H](O)C(=O)N[C@@H]1C[C@H](N)[C@@H](O[C@H]2O[C@H](CO)[C@@H](O)[C@H](O)[C@H]2N)[C@H](O[C@@H]2O[C@H](CN)[C@@H](O)[C@H]2O)[C@H]1O [compound 2, 5-O-(5-Amino-5-deoxy-β-D-ribofuranosyl)-1-N-[(S)-4-amino-2-hydroxy-butanoyl]paromamine], the “fold more effective (maximal suppression) than compound 1” value ([1]; COS-7, vs compound 1) was 1.9 fold, the “fold more effective (maximal suppression) than gentamicin” value ([1]; COS-7, vs gentamicin) was 2.8 fold and the “fold more effective (maximal suppression) than paromomycin” value ([1]; COS-7, vs paromomycin) was 3.2 fold. For the same molecule, the “reduction in overall translation” value [4] was “approximately 50%” and the “level of readthrough (rank among four aminoglycosides)” value ([4]; in vitro, eight constructs) was “induced the highest level of readthrough”.

In the case of NC[C@@H]1CC[C@@H](N)[C@@H](O[C@H]2[C@H](O)[C@@H](O[C@H]3O[C@H](CO)[C@@H](O)[C@H](N)[C@H]3O)[C@H](N)C[C@@H]2N)O1 [dibekacin], the LD50 (mice; acute lethal toxicity) is listed as 71 mg/kg.

In the case of NC[C@H]1O[C@H](O[C@H]2[C@H](O)[C@@H](O)[C@H](N)C[C@@H]2N)[C@H](N)[C@@H](O)[C@@H]1O [neamine], the LD50 (mice; acute lethal toxicity) is listed as 125 mg/kg.

In the case of NC[C@H]1O[C@H](O[C@H]2[C@H](O[C@@H]3O[C@H](CO)[C@@H](O)[C@H]3O)[C@@H](O)[C@H](N)C[C@@H]2N)[C@H](N)[C@@H](O)[C@@H]1O [ribostamycin], the LD50 (mice; acute lethal toxicity) is listed as 260 mg/kg.

In the case of NC[C@H]1O[C@H](O[C@H]2[C@H](O)[C@@H](O[C@H]3O[C@H](CO)[C@@H](O)[C@H](N)[C@H]3O)[C@H](N)C[C@@H]2N)[C@H](N)C[C@@H]1O [tobramycin], the suppression activity (premature stop codons) is given as “does not have suppression activity”.

For butirosin, the LD50 (mice; acute lethal toxicity) is given as 520 mg/kg.

For kanamycin A, the readthrough activity (premature stop codons) is given as “does not show measurable readthrough activity”.
